“Also recorded” adds a separate entry of the source. Like-named read-outs stand apart in the source and are kept apart here.
Experiments:
R6/2 mice [1] = experiment: Two-choice swim test in R6/2 mouse; type: in vivo; settings: transgenic R6/2 mice
Excerpt: Eighty male and female R6/2 mice and 20 male and female wild-type littermate control mice (F1 generation) will be bred by Cerebricon at FELASA compliant National Animal Facility Center Kuopio by mating (F0 generation) WT males (C57BL6CBA F1 hybrid, JAX) with ovarian transferred (01) TG females (JAX). Breeder animals receive igloos instead of play tunnels, nylabone and cotton nestlets and use Purina diet 5008. Upon weaning, pups receive Purina diet 5001.
Sertraline will be made fresh daily by diluting to 1% TWEEN® 80 in ddH2°.
Two-Choice Swim Test: The two-choice swim test is performed at age week 9. The swim tank (dimensions: 70 cm×30 cm×30 cm) is filled with water (26±1° C.) no higher than 1 cm from the top of a hidden escape platform. The hidden cylindrical platform (diameter, 6.0 cm, height,˜9 cm) is placed either at right or left end of the tank. During acquisition of the task, each mouse is given six training trials per day to swim towards or away from the right end (counterbalanced across subjects) to escape onto the platform. […] A choice is recorded when a mouse moves towards one end and swims beyond 20 cm from the center. If the mouse fails to make a choice within about 15 minutes a “no choice” is recorded. […] In all trials, choice, latency and “no choice” are recorded.

R6/2 mice [2] = experiment: Longevity / survival study in R6/2 mouse; settings: for survival versus vehicle and sertraline treated animals: 10 mg/kg
Procedure: The solutions are made and stored according to instructions provided by the sponsor (storage conditions and expiration day of solution).
Body weight is measured starting at age of four weeks and two times per week on the same day (i.e., Monday and Thursday) until end of the study. For convenience this is done just prior to animals receiving doses for those days. Animals are monitored twice-a-day by laboratory personnel (8 am and 4 pm) for “survival.” It is most optimal to measure “true survival” that is when the mouse has no detectable heartbeat. Since IACUC restrictions prevent this then using a definable and quantifiable endpoint for “survival” need to be used (see section 2.7 humane end-points). […] For instance, body temperature changes can drop just before death but many R6/2 mice show spontaneous death without preceding body temperature changes. More easily measured is body weight loss. […] Again mice that die spontaneously may not show such acute body weight changes. For these alternative measures combining these “survival” data (body weight or temperature decrease) with “survival” of spontaneous death mice (age found dead in a cage) is suitable.

[3] = Body weight loss in chronically treated R6/2 mouse; type: in vivo; settings: R6/2 mice, 5 mg/kg or 10 mg/kg IP per day, chronic
Excerpt: More easily measured is body weight loss.
In the R6/2 mouse study described above the weight of the animals were monitored to determine if the LSD1 or LSD1/MAO-B dual inhibitor cause weight loss in chronically treated animals. […] .

mouse haloperidol model = experiment: Mouse haloperidol model of catalepsy; type: in vivo; settings: control caffeine
Excerpt: See, e.g., East et al. (2010), Bioorg. Med Chem. Lett., August 15; 20(16):4901-5, Epub 2010 Jun. 25.

SH-SY5Y cells = experiment: Western blot for dimethylated H3K4 in SH-SY5Y cells; type: cell-based
Excerpt: B-actin was used as a loading control.

[4] = tested on: Drosophila melanogaster expressing HD-Q120; experiment: Eye (rhabdomere) degeneration in Huntington disease fly line B-8533; type: in vivo; settings: 1 μM and 5 μM
Excerpt: The eye of the fruit fly, Drosophila melanogaster, provides an ideal model system for studying neuronal survival. Each eye consists of approximately 800 units called ommatidia arranged in a regular pattern and the photoreceptors that compose each ommatidium exist in an ordered trapezoidal array. The presence and organization of these cells can be readily assessed using a technique called optical neutralization of the cornea (Franceschini and Kirschfeld, 1971).
This technique is being used in a screen for compounds that can rescue the neurodegenerative phenotype of a Drosophila model of Huntingtons disease (HD), fly line B-8533 (Jackson et al., 1998). This line contains a P-element construct inserted on the second chromosome, P{w+ gmr.HD-Q120)}. The construct contains a w+ visible eye-color marker, which enables confirmation of the presence of the insertion. […]
The now three- to ten-day-old flies are added to the vials (six to ten females and three males in each), incubated at 25° for seven to ten days. […] F1 eclosion-start date is noted and males and females are counted. […] Ommatidia are scored for number of visible rhabdomeres (0 to 7). […] Significance can be determined by the Mann-Whitney U-test or one-tailed student's T-test. […]

[5] = target: T1, Human recombinant monoamine oxidase MAO-A (Homo sapiens, UniProt P21397); experiment: MAO-A inhibition assay (kynuramine fluorescence); type: biochemical
T1 construct: purchased Sigma Aldrich
T1 sequence (P21397 1-527): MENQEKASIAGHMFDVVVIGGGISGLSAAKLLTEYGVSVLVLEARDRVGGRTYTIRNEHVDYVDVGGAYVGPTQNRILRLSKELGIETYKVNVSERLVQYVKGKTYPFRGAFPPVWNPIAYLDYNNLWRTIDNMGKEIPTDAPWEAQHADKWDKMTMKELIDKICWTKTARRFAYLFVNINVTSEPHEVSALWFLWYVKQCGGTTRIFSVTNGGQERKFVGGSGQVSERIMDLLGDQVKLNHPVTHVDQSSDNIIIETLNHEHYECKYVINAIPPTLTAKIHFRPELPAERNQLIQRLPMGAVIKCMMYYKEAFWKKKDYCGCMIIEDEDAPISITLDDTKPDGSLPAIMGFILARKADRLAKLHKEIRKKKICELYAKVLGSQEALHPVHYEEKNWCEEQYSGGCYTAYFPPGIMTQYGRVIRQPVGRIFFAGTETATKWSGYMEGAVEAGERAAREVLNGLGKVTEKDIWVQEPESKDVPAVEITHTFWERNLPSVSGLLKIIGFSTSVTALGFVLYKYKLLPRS
Excerpt: Human recombinant monoamine oxidase proteins MAO-A and MAO-B were purchased from Sigma Aldrich. MAOs catalyze the oxidative deamination of primary, secondary and tertiary amines. In order to monitor MAO enzymatic activities and/or their inhibition rate by inhibitor(s) of interest, a fluorescent-based (inhibitor)-screening assay was set up. 3-(2-Aminophenyl)-3-oxopropanamine (kynuramine dihydrobromide, Sigma Aldrich), a non fluorescent compound was chosen as a substrate. Kynuramine is a non-specific substrate for both MAOs activities. While undergoing oxidative deamination by MAO activities, kynuramine is converted into 4-hydroxyquinoline (4-HQ), a resulting fluorescent product.
The monoamine oxidase activity was estimated by measuring the conversion of kynuramine into 4-hydroxyquinoline. Assays were conducted in 96-well black plates with clear bottom (Corning) in a final volume of 100 μL. The assay buffer was 100 mM HEPES, pH 7.5. Each experiment was performed in triplicate within the same experiment. […] The conversion of kynuramine to 4-hydroxyquinoline, was monitored by fluorescence (excitation at 320 nm, emission at 360 nm) using a microplate reader (Infinite 200, Tecan). Arbitrary units were used to measure levels of fluorescence produced in the absence and/or in the presence of inhibitor. […] The Ki (TC50) of each inhibitor was determined at Vmax/2.

NC(=O)CNC1CC1c1ccc(OCc2ccccc2)cc1 (stereo not shown) [Compound Dual-1]
other parameters of two-choice swim test (R6/2 mice [1]; 5 mg/kg ip): clear trend (NS)
performance in two-choice swim test (latency to find the platform) (R6/2 mice [1]; 5 mg/kg ip once-a-day, age week 9, 5 mg/kg): significantly improved the performance; also recorded: improved response in the two-choice swim test
longevity (overall survival) (R6/2 mice [2]; R6/2 mouse study): can increase the longevity
survival versus vehicle and sertraline treated animals (R6/2 mice [2]; female R6/2 mice): survived longer
survival versus vehicle and sertraline treated animals (R6/2 mice [2]; male and female R6/2 mice): survived longer
body weight loss compared to transgenic animals treated with vehicle or sertraline [3]: caused no significant weight loss; also recorded: did not have substantially different weight losses
rescue of toxin induced deficit (catalepsy) (mouse haloperidol model): rescue the toxin induced deficit in a manner similar to or better than control compound caffeine or no treatment
levels of dimethylated H3K4 (western blot) (SH-SY5Y cells; 100 μM, one, two and three days): increases H3K4 methylation in cells in a time dependent manner; also recorded: increases levels of dimethylated H3K4 in cells in a time dependent manner
potency at increasing global dimethylated H3K4 levels as compared to tranylcypromine (SH-SY5Y cells; Dual-1 100 μM vs parnate 250 μM): ten-fold or more potent

CN1CCN(C(=O)CNC2CC2c2ccc(OCc3ccccc3)cc2)CC1 (stereo not shown) [Compound Selective-1]
rhabdomere degeneration as compared to vehicle treated flies ([4]; day 2): reduced rhadomere degeneration
rescue of eye degeneration phenotype as compared to vehicle treated fly ([4]; day not stated): in a concentration dependent manner rescues the eye degeneration phenotype
IC50 [5]: > 1000 nM

CN1CCN(C(=O)CNC2CC2c2ccc(C3CC3)cc2)CC1 (stereo not shown) [Selective-2]
IC50 ([5]; read-out: MAO-A IC50): > 1000 nM

Source: patent publication US20160081947A1, “SELECTIVE LSD1 AND DUAL LSD1/MAO-B INHIBITORS FOR MODULATING DISEASES ASSOCIATED WITH ALTERATIONS IN PROTEIN CONFORMATION” (ORYZON GENOMICS S.A., priority 2010, published 2016)
